According to US11986540B2, “Compositions including pafolacianine for the identification of malignant lesions” (ON TARGET LABORATORIES, LLC., priority 2022, dated 2024):
Read-outs that look alike come from different tables or passages of the source.

Assays:
[1] = Repeat once-weekly IV dose toxicokinetics in dogs; assay type: in vivo; conditions: for half-life / AUC(0-inf) / AUC(0-t) / C0 / clearance / Vd: dog, in vivo; for Vd: read-out: Vss
Method: Overall, drug concentrations increased with ascending dose, noting that the mean profiles at the two highest dose levels were overlapping. Systemic exposure (AUClast) to pafolacianine was approximately dose-proportional over the range of doses administered (0.9 to 13.9 mg/kg) and within the observed variability (Table 5). […] On both Day 0 and Day 13, CL was slow (relative to hepatic blood flow) and Vss was moderate. Mean T1/2 ranged from approximately 13 to 18 hours.

ovarian cancer lesion = experiment: Randomized, multicenter, open-label study: detection of ovarian cancer lesions under fluorescent light; assay type: in vivo, human
Method: The safety and efficacy of the compositions disclosed herein was evaluated in a randomized, multicenter, open-label study. The study enrolled 178 women diagnosed with ovarian cancer or with high clinical suspicion of ovarian cancer scheduled to undergo primary surgical cytoreduction, interval debulking, or recurrent ovarian cancer surgery. One hundred and fifty women highly suspicious for or with confirmed ovarian cancer received a composition including pafolacianine (dosed at 0.025 mg/kg at least 1 hour before initiation of fluorescence imaging). Among them, 134 women with mean age 60 (range 33 to 81) years received both normal light imaging evaluation and fluorescence imaging evaluation (the Intent-to-Image set).
The study assessed the proportion of patients with at least one evaluable ovarian cancer lesion confirmed by central pathology that was detected with compositions including pafolacianine under fluorescent light but not under normal light or palpation and not otherwise identified for resection prior to surgery. The detection proportion was estimated in women who underwent both normal light and fluorescent light (Intent-to-Image Set), see Table 1.

plasma protein = experiment: Plasma protein binding, equilibrium dialysis, human plasma; assay type: in vitro ADME; conditions: human plasma, 5 μM
Method: (§1) The plasma protein binding of pafolacianine was studied in vitro in fresh human, Sprague Dawley rat, and Beagle dog plasma using equilibrium dialysis. Pafolacianine was introduced into plasma samples, in duplicate, resulting in a final concentration of 5 μM. The mean (±SD) percentage of plasma protein bound pafolacianine was 99.1±0.1%, 98.6±0.1%, and 93.7±1.5% for rat, dog and human, respectively. Pafolacianine was highly bound to plasma protein in all species examined.

[2] = as above; assay type: in vitro ADME; conditions: human, plasma
Method: as §1

FR = molecular target: T1, FR (Homo sapiens, UniProt P15328); experiment: [3H]-folic acid competition binding on KB cells
T1 construct: KB cells (a derivative of HeLa cells) that over-express FR; endogenous in cells; host or cells: KB cells (HeLa derivative)

[3] = Pharmacokinetics in specific populations; assay type: in vivo; conditions: age 18-89 years, weight 41.6-133.6 kg, mild to moderate renal or hepatic impairment
[4] = Safety in three open label clinical studies; assay type: in vivo, human
Method: The safety of the disclosed compositions were evaluated in three open label clinical studies, two studies (N=150 and N=44) in patients with ovarian cancer and one study (N=100) in patients with cancer in the lung. A total of 294 patients received 0.025 mg/kg of the disclosed compositions via intravenous administration. The mean age of patients was 63.5 years; 51% were 65 years of age or older; 89% of patients were female; and 84% of patients were white.

[5] = female, iv, 0.9 mg/kg, dogs F, 0.9 mg/kg once-weekly IV, Day 0
[6] = female, iv, 0.9 mg/kg, dogs F, 0.9 mg/kg once-weekly IV, Day 13
[7] = female, iv, 9.3 mg/kg, dogs F, 9.3 mg/kg once-weekly IV, Day 0
[8] = female, iv, 9.3 mg/kg, dogs F, 9.3 mg/kg once-weekly IV, Day 13
[9] = female, iv, 13.9 mg/kg, dogs F, 13.9 mg/kg once-weekly IV, Day 0
[10] = female, iv, 13.9 mg/kg, dogs F, 13.9 mg/kg once-weekly IV, Day 13
[11] = male, iv, 0.9 mg/kg, dogs M, 0.9 mg/kg once-weekly IV, Day 0
[12] = male, iv, 0.9 mg/kg, dogs M, 0.9 mg/kg once-weekly IV, Day 13
[13] = male, iv, 9.3 mg/kg, dogs M, 9.3 mg/kg once-weekly IV, Day 0
[14] = male, iv, 9.3 mg/kg, dogs M, 9.3 mg/kg once-weekly IV, Day 13
[15] = male, iv, 13.9 mg/kg, dogs M, 13.9 mg/kg once-weekly IV, Day 0
[16] = male, iv, 13.9 mg/kg, dogs M, 13.9 mg/kg once-weekly IV, Day 13

T1 sequence (P15328 25-234): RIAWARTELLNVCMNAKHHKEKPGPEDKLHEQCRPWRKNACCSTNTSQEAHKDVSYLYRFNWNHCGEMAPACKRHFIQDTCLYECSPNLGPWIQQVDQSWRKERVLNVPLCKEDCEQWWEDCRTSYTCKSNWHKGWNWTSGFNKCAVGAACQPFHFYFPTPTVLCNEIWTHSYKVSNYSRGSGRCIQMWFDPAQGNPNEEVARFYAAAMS

For `CC1(C)C(=CC=C2CCCC(C=CC3=[N+](CCCCS(=O)(=O)[O-])c4ccc(S(=O)(=O)O)cc4C3(C)C)=C2Oc2ccc(CC(NC(=O)c3ccc(NCc4cnc5nc(N)[nH]c(=O)c5n4)cc3)C(=O)O)cc2)N(CCCCS(=O)(=O)O)c2ccc(S(=O)(=O)O)cc21` (stereo not drawn) [pafolacianine], the half-life ([1]; both sexes, intravenous, dogs, all doses and days, read-out: Mean T1/2 range) was 13 to 18 h, the “DN AUClast” value ([1]; dogs F, 0.9 mg/kg once-weekly IV, Day 0) was 9.34 (μg · h/ml) (mg/kg) and the “DN AUClast” value ([1]; dogs F, 0.9 mg/kg once-weekly IV, Day 13) was 7.36 (μg · h/ml) (mg/kg). For the same compound, the “DN AUClast” value ([1]; dogs F, 9.3 mg/kg once-weekly IV, Day 0) was 5.46 (μg · h/ml) (mg/kg), the “DN AUClast” value ([1]; dogs F, 9.3 mg/kg once-weekly IV, Day 13) was 6.21 (μg · h/ml) (mg/kg) and the “DN AUClast” value ([1]; dogs F, 13.9 mg/kg once-weekly IV, Day 0) was 5.74 (μg · h/ml) (mg/kg). The “DN AUClast” value ([1]; dogs F, 13.9 mg/kg once-weekly IV, Day 13) was 6.81 (μg · h/ml) (mg/kg), the “DN AUClast” value ([1]; dogs M, 0.9 mg/kg once-weekly IV, Day 0) was 5.27 (μg · h/ml) (mg/kg) and the “DN AUClast” value ([1]; dogs M, 0.9 mg/kg once-weekly IV, Day 13) was 5.64 (μg · h/ml) (mg/kg). For the same compound, the “DN AUClast” value ([1]; dogs M, 9.3 mg/kg once-weekly IV, Day 0) was 6.24 (μg · h/ml) (mg/kg), the “DN AUClast” value ([1]; dogs M, 9.3 mg/kg once-weekly IV, Day 13) was 7.03 (μg · h/ml) (mg/kg) and the “DN AUClast” value ([1]; dogs M, 13.9 mg/kg once-weekly IV, Day 0) was 5.65 (μg · h/ml) (mg/kg). For the same compound, the “DN AUClast” value ([1]; dogs M, 13.9 mg/kg once-weekly IV, Day 13) was 6.18 (μg · h/ml) (mg/kg), the “accumulation or changes in TK after repeated dosing” value ([1]; dogs, once-weekly dosing for 3 weeks) was “no accumulation or changes in TK were evident” and the AUC(0-inf) [1, 5] was 10500 ng·h/mL. It also gave an AUC(0-t) [1, 5] of 8400 ng·h/mL, a C0 [1, 5] of 4.75 µg/mL and a clearance [1, 5] of 1.59 mL/min/kg. The half-life ([1]; female, iv, 0.9 mg/kg, dogs F, 0.9 mg/kg once-weekly IV, Day 0, read-out: T1/2 (converted)) was 15 h, the Vd [1, 5] was 1.47 L/kg and the AUC(0-inf) [1, 6] was 8420 ng·h/mL. The AUC(0-t) [1, 6] was 6630 ng·h/mL, the C0 [1, 6] was 8.92 µg/mL and the clearance [1, 6] was 1.8 mL/min/kg. The half-life ([1]; female, iv, 0.9 mg/kg, dogs F, 0.9 mg/kg once-weekly IV, Day 13, read-out: T1/2 (converted)) was 13.1 h, the Vd [1, 6] was 1.49 L/kg and the AUC(0-inf) [1, 7] was 69300 ng·h/mL. The AUC(0-t) [1, 7] was 50800 ng·h/mL, the C0 [1, 7] was 54.9 µg/mL and the clearance [1, 7] was 2.35 mL/min/kg. The half-life ([1]; female, iv, 9.3 mg/kg, dogs F, 9.3 mg/kg once-weekly IV, Day 0, read-out: T1/2 (converted)) was 15.2 h, the Vd [1, 7] was 2.38 L/kg and the AUC(0-inf) [1, 8] was 76600 ng·h/mL. For the same compound, the AUC(0-t) [1, 8] was 57700 ng·h/mL, the C0 [1, 8] was 67.8 µg/mL and the clearance [1, 8] was 2.11 mL/min/kg. For the same compound, the half-life ([1]; female, iv, 9.3 mg/kg, dogs F, 9.3 mg/kg once-weekly IV, Day 13, read-out: T1/2 (converted)) was 14.3 h, the Vd [1, 8] was 1.94 L/kg and the AUC(0-inf) [1, 9] was 109000 ng·h/mL. The AUC(0-t) [1, 9] was 79800 ng·h/mL, the C0 [1, 9] was 79.6 µg/mL and the clearance [1, 9] was 2.15 mL/min/kg. The half-life ([1]; female, iv, 13.9 mg/kg, dogs F, 13.9 mg/kg once-weekly IV, Day 0, read-out: T1/2 (converted)) was 15.3 h, the Vd [1, 9] was 2.2 L/kg and the AUC(0-inf) [1, 10] was 129000 ng·h/mL. For the same compound, the AUC(0-t) [1, 10] was 94700 ng·h/mL, the C0 [1, 10] was 104 µg/mL and the clearance [1, 10] was 1.81 mL/min/kg. For the same compound, the half-life ([1]; female, iv, 13.9 mg/kg, dogs F, 13.9 mg/kg once-weekly IV, Day 13, read-out: T1/2 (converted)) was 15.3 h, the Vd [1, 10] was 1.83 L/kg and the AUC(0-inf) [1, 11] was 6400 ng·h/mL. It also gave an AUC(0-t) [1, 11] of 4740 ng·h/mL, a C0 [1, 11] of 4.66 µg/mL and a clearance [1, 11] of 2.39 mL/min/kg. For the same compound, the half-life ([1]; male, iv, 0.9 mg/kg, dogs M, 0.9 mg/kg once-weekly IV, Day 0, read-out: T1/2 (converted)) was 14.8 h, the Vd [1, 11] was 2.31 L/kg and the AUC(0-inf) [1, 12] was 7360 ng·h/mL. It also gave an AUC(0-t) [1, 12] of 5070 ng·h/mL, a C0 [1, 12] of 5.73 µg/mL and a clearance [1, 12] of 2.09 mL/min/kg. For the same compound, the half-life ([1]; male, iv, 0.9 mg/kg, dogs M, 0.9 mg/kg once-weekly IV, Day 13, read-out: T1/2 (converted)) was 17.6 h, the Vd [1, 12] was 2.42 L/kg and the AUC(0-inf) [1, 13] was 81200 ng·h/mL. The AUC(0-t) [1, 13] was 58000 ng·h/mL, the C0 [1, 13] was 62.1 µg/mL and the clearance [1, 13] was 1.92 mL/min/kg. It also gave a half-life ([1]; male, iv, 9.3 mg/kg, dogs M, 9.3 mg/kg once-weekly IV, Day 0, read-out: T1/2 (converted)) of 16.4 h, a Vd [1, 13] of 2.1 L/kg and an AUC(0-inf) [1, 14] of 85100 ng·h/mL. The AUC(0-t) [1, 14] was 65400 ng·h/mL, the C0 [1, 14] was 72.6 µg/mL and the clearance [1, 14] was 1.84 mL/min/kg. For the same compound, the half-life ([1]; male, iv, 9.3 mg/kg, dogs M, 9.3 mg/kg once-weekly IV, Day 13, read-out: T1/2 (converted)) was 13.3 h, the Vd [1, 14] was 1.6 L/kg and the AUC(0-inf) [1, 15] was 110000 ng·h/mL. The AUC(0-t) [1, 15] was 78500 ng·h/mL, the C0 [1, 15] was 81.8 µg/mL and the clearance [1, 15] was 2.13 mL/min/kg. For the same compound, the half-life ([1]; male, iv, 13.9 mg/kg, dogs M, 13.9 mg/kg once-weekly IV, Day 0, read-out: T1/2 (converted)) was 16.2 h, the Vd [1, 15] was 2.35 L/kg and the AUC(0-inf) [1, 16] was 117000 ng·h/mL. For the same compound, the AUC(0-t) [1, 16] was 85900 ng·h/mL, the C0 [1, 16] was 108 µg/mL and the clearance [1, 16] was 2 mL/min/kg. For the same compound, the half-life ([1]; male, iv, 13.9 mg/kg, dogs M, 13.9 mg/kg once-weekly IV, Day 13, read-out: T1/2 (converted)) was 15 h, the Vd [1, 16] was 2.02 L/kg and the “Patients with at least one confirmed ovarian cancer evaluable lesion, Proportion (%)” value (ovarian cancer lesion; detected under fluorescent light but not normal light or palpation, Intent-to-Image set N = 134, 0.025 mg/kg) was 0.269 (26.9%). The “Patient-level false positive rate” value (ovarian cancer lesion; near-infrared fluorescent light, ovarian cancer lesions confirmed by central pathology) was 20.2%, the “mean (±SD) percentage of plasma protein bound” value (plasma protein) was 93.7±1.5% and the fraction unbound at 5 μM [2] was 0.063. The “competition with [3H]-folic acid for the receptor” value (FR) was “competed well”, the “differences in pharmacokinetics by age, weight, renal or hepatic impairment” value [3] was “No clinically significant differences” and the “Adverse reaction: abdominal pain” value ([4]; 294 patients, 0.025 mg/kg IV) was 2.7%. The “Adverse reaction: chest discomfort” value ([4]; 294 patients, 0.025 mg/kg IV) was 1%, the “Adverse reaction: dyspepsia” value ([4]; 294 patients, 0.025 mg/kg IV) was 1% and the “Adverse reaction: flushing” value ([4]; 294 patients, 0.025 mg/kg IV) was 1.7%. For the same compound, the “Adverse reaction: hypersensitivity” value ([4]; 294 patients, 0.025 mg/kg IV) was 1%, the “Adverse reaction: nausea” value ([4]; 294 patients, 0.025 mg/kg IV) was 15% and the “Adverse reaction: pruritus” value ([4]; 294 patients, 0.025 mg/kg IV) was 1%. The “Adverse reaction: vomiting” value ([4]; 294 patients, 0.025 mg/kg IV) was 5.8%, the “patients with adverse reactions during the administration” value ([4]; 294 patients, 0.025 mg/kg IV) was 2.4% and the “time of occurrence of reactions after start of infusion” value ([4]; typically) was no more than 15 min.
